Assay results: patent US20140086938A1, “METHODS OF INHIBITING TUMOR GROWTH USING TTK ANTAGONISTS” (University Health Network, priority 2007, published 2014)

Legend:
[1] = tested on: T-47D breast cancer cells; assay: Colony formation in soft agar after siRNA transfection; type: cell-based, human; conditions: 40 nM siRNA, relative to siCONTROL, two independent experiments
Description: Cells were transfected with 40 nM individual siRNAs, 40 nM siRNA pool including four individual siRNAs at 10 nM each or 40 nM non-silencing control siCONTROL using Lipofectamine 2000 Transfection Reagent (Invitrogen Corporation), mixed with culture medium containing 0.7% agar in 6-well plates and cultured at 37° C. After 2 weeks, the top layer of the culture was stained with 0.2% p-iodonitrotetrazolium violet and colonies were counted using a Sorcerer Colony Counter (Optomax).
To determine the effects of siRNA-mediated knockdown of TTK gene expression on anchorage-independent cell growth in breast cancer cells, T-47D breast cancer cell line was transfected with either the siRNA#2 or siRNA#3 TTK-targeting siRNA, the siRNA POOL containing 4 TTK-targeting siRNAs or the siCONTROL non-targeting siRNA. Following transfection colony formation in soft agar was assessed.

MDA-MB-231 = assay: SRB cell viability after siRNA transfection; type: cell-based, human; conditions: 40 nM siRNA, day 5 post-transfection, normalized over siCONTROL
Description: (§1) Different normal breast and breast cancer cell lines were used for siRNA transfection. Cells were seeded at various concentrations, ranging from 1500 to 6000 per well according to cell growth rate, into 96 well plates. 40 nM individual siRNAs or 40 nM siRNA pool including four individual siRNAs at 10 nM each were transfected into cells using Lipofectamine-2000 24 hrs after cell seeding. Cells were then incubated at 37° C. for five days before cell viability assay were conducted.
(§2) SRB assay was performed to assess cell survival. SRB is a water-soluble dye that binds to the basic amino acids of the cellular proteins. Thus, colorimetric measurement of the bound dye provides an estimate of the total protein mass and is related to the cell number. The cells were fixed in situ by gently aspirating off the culture media and adding 50 μl ice cold 10% Tri-chloroacetic Acid (TCA) per well and incubate at 4° C. for 30-60 min. The plates were washed with tap water five times and allowed to air dry for 5 min. 50 μl of 0.4% (w/v) Sulforhodamine B solution in 1% (v/v) acetic acid was added per well and incubated for 30 min at RT for staining. Following staining, plates were washed four times with 1% acetic acid to remove any unbound dye and then allowed to air dry for 5 min. The stain was solubilized with 100 μl of 10 mM Tris pH 10.5 per well. Absorbance was read at 570 mn. The cell survival percentage after each siRNA(s) knock down was calculated over the non-silencing control siCTRL or siPOOL as well as siTOX as a transfection efficiency control.
(§3) To assess the effects of TTK knockdown on the viability of breast cancer cells, various breast cancer cell lines were transfected with each of the four TTK-targeting siRNAs individually, the pooled siRNA containing all four of the TTK-targeting siRNAs, or the siCONTROL siRNA, all at a concentration of 40 nM. At day 5 post-transfection, the viability of the cells was determined using the SRB assay described herein.

MDA-MB-468 = assay: SRB cell viability after siRNA transfection; type: cell-based, human; conditions: 40 nM siRNA, day 5 post-transfection, normalized over siCONTROL
Description: as §1, §2, §3

CAMA-1 = assay: SRB cell viability after siRNA transfection; type: cell-based, human; conditions: 40 nM siRNA, day 5 post-transfection, normalized over siCONTROL
Description: as §1, §2, §3

MDA-MB-435 = assay: SRB cell viability after siRNA transfection; type: cell-based, human; conditions: 40 nM siRNA, day 5 post-transfection, normalized over siCONTROL
Description: as §1, §2, §3

BT474 = assay: SRB cell viability after siRNA transfection; type: cell-based, human; conditions: 40 nM siRNA, day 5 post-transfection, normalized over siCONTROL
Description: as §1, §2, §3

Hs578T = assay: SRB cell viability after siRNA transfection; type: cell-based, human; conditions: 40 nM siRNA, day 5 post-transfection, normalized over siCONTROL
Description: as §1, §2, §3

HCC1419 = assay: SRB cell viability after siRNA transfection; type: cell-based, human; conditions: 40 nM siRNA, day 5 post-transfection, normalized over siCONTROL
Description: as §1, §2, §3

MDA-MB-330 = assay: SRB cell viability after siRNA transfection; type: cell-based, human; conditions: 40 nM siRNA, day 5 post-transfection, normalized over siCONTROL
Description: as §1, §2, §3

SKBr-3 = assay: SRB cell viability after siRNA transfection; type: cell-based, human; conditions: 40 nM siRNA, day 5 post-transfection, normalized over siCONTROL
Description: as §1, §2, §3

T47D = assay: SRB cell viability after siRNA transfection; type: cell-based, human; conditions: 40 nM siRNA, day 5 post-transfection, normalized over siCONTROL
Description: as §1, §2, §3

MDA-MB-453 = assay: SRB cell viability after siRNA transfection; type: cell-based, human; conditions: 40 nM siRNA, day 5 post-transfection, normalized over siCONTROL
Description: as §1, §2, §3

MCF-7 = assay: SRB cell viability after siRNA transfection; type: cell-based, human; conditions: 40 nM siRNA, day 5 post-transfection, normalized over siCONTROL
Description: as §1, §2, §3

MDA-MB-468 (Basal) = assay: Cell cycle profile by flow cytometry after siRNA transfection; type: cell-based, human; conditions: 40 nM siRNA, day 3 post-transfection; for <G1: siCONTROL (Neg. Control) 4.09; for G2/M: siCONTROL (Neg. Control) 20.59
Description: (§4) To assess the effects of TTK knockdown on the physiology of normal breast and breast cancer cell lines, luminal (MCF7) or basal-like (MDA-MB-435, MDA-MB-468) breast cancer cell lines, a lung cancer cell line (A549) and a normal breast cell line (184A1) each were transfected with 40 nM of TTK-targeting siRNA #2, siRNA #3, the pooled siRNA containing all four of the TTK-targeting siRNAs, or the siCONTROL siRNA. At day 3 post-transfection, the cell cycle profile of the transfected cells was analyzed by flow cytometry to determine the effects of TTK knockdown on cell cycle arrest and cell death. Depletion of TTK in cells transfected with TTK-targeting siRNAs caused significant cell cycle arrest and cell death.

A549 (Lung) = assay: as above; type: cell-based, human; conditions: 40 nM siRNA, day 3 post-transfection; for <G1: siCONTROL (Neg. Control) 0.84; for G2/M: siCONTROL (Neg. Control) 10.57
Description: as §4

184A1 (Normal) = assay: as above; type: cell-based, human; conditions: 40 nM siRNA, day 3 post-transfection; for <G1: siCONTROL (Neg. Control) 1.03; for G2/M: siCONTROL (Neg. Control) 10.35
Description: as §4

MCF-7 (Luminal) = assay: as above; type: cell-based, human; conditions: for apoptosis, indicated by increased G2/M and <G1 populations: MCF7 breast cancer cells, flow cytometry, vs siCONTROL; for <G1 / G2/M: MCF-7, 40 nM siRNA, day 3 post-transfection; for <G1: siCONTROL (Neg. Control) 2.11; for G2/M: siCONTROL (Neg. Control) 16.17
Description: as §4

MDA-MB-435 (Basal) = assay: as above; type: cell-based, human; conditions: 40 nM siRNA, day 3 post-transfection; for <G1: siCONTROL (Neg. Control) 0.85; for G2/M: siCONTROL (Neg. Control) 18.77
Description: as §4

tumors = conditions: TNP-470 below maximum tolerated dose with cyclophophamide 170 mg/kg, every 6 days; cited from earlier work

Molecule | colonies formed in soft agar (number and size) [1] | % survival (MDA-MB-231) | % survival (MDA-MB-468) | % survival (CAMA-1) | % survival (MDA-MB-435) | % survival (BT474) | % survival (Hs578T) | % survival (HCC1419) | % survival (MDA-MB-330) | % survival (SKBr-3) | % survival (T47D) | % survival (MDA-MB-453) | % survival (MCF-7) | <G1 (MDA-MB-468 (Basal)) | G2/M (MDA-MB-468 (Basal)) | <G1 (A549 (Lung)) | G2/M (A549 (Lung)) | <G1 (184A1 (Normal)) | G2/M (184A1 (Normal)) | apoptosis, indicated by increased G2/M and <G1 populations (MCF-7 (Luminal)) | further results
siRNA #2: siRNA targeting human TTK: 5′-GGUAUUAACUGCCCAAGAA-3′ (SEQ ID NO: 4) (listed as RNA, chemistry not given here) | reduction in the number of colonies | −0.09% | 0.00% | 0.30% | 0.25% | 0.66% | 1.25% | 0.75% | 0.38% | 0.34% | 0.44% | −0.04% | 0.27% | 15.10 | 15.72 | 6.03 | 20.58 | 5.35 | 27.75 | caused apoptosis of the cancer cells | colonies formed in soft agar (number and size) ([1]; listed as siRNA#2): reduction in both colony size and number; <G1 (MCF-7 (Luminal)): 12.03; G2/M (MCF-7 (Luminal)): 25.18; <G1 (MDA-MB-435 (Basal)): 4.69; G2/M (MDA-MB-435 (Basal)): 19.89
CO[C@@H]1[C@H](OC(=O)NC(=O)CCl)CC[C@]2(CO2)[C@H]1[C@@]1(C)O[C@@H]1CC=C(C)C [TNP-470] | – | – | – | – | – | – | – | – | – | – | – | – | – | – | – | – | – | – | – | – | tumor response (tumors): complete regression of the tumors
siRNA #1: siRNA targeting human TTK: 5′-GCAAUACCUUGGAUGAUUA-3′ (SEQ ID NO: 3) (listed as RNA, chemistry not given here) | – | 0.21% | 0.69% | 0.46% | 0.78% | 0.64% | 1.02% | 0.91% | 0.31% | 0.32% | 0.62% | 0.33% | 0.27% | – | – | – | – | – | – | – | –
siRNA #4: siRNA targeting human TTK: 5′-GAUAAGAUCAUCCGACUUU-3′ (SEQ ID NO: 6) (listed as RNA, chemistry not given here) | – | 0.58% | 1.46% | 0.77% | 0.93% | 0.90% | 1.16% | 1.05% | 0.72% | 0.91% | 1.19% | 0.56% | 0.63% | – | – | – | – | – | – | – | –
siRNA #3: siRNA targeting human TTK: 5′-GCACGUGACUACUUUCAAA-3′ (SEQ ID NO: 5) (listed as RNA, chemistry not given here) | reduction in the number of colonies | 0.23% | 0.27% | 0.52% | 0.60% | 0.83% | 0.53% | 0.91% | 0.63% | 0.49% | 0.74% | 0.18% | 0.23% | 11.12 | 28.41 | 11.38 | 24.87 | 3.92 | 17.49 | caused apoptosis of the cancer cells | colonies formed in soft agar (number and size) ([1]; listed as siRNA#3): reduction in both colony size and number; <G1 (MCF-7 (Luminal)): 5.61; G2/M (MCF-7 (Luminal)): 65.23; <G1 (MDA-MB-435 (Basal)): 2.66; G2/M (MDA-MB-435 (Basal)): 40.08
